Where “and” joins values, the source holds several entries; their conditions need not be identical. Equal values may be shown once. Entries after “also recorded” stand apart in the source; their conditions may differ.
Columns and labels:
[1] = molecular target: NMDA receptors (NR2B-containing) (Rattus norvegicus, UniProt P35439+Q00960); test: evoked NMDA currents ([…]), double-perforated patch; format: cell-based
Experimental: (§1) Electrophysiology. Dual whole cell perforated patch clamp recordings were made on two interconnected cultured hippocampal pyramidal neurons. Perforated patch pipettes were front-filled with a solution containing (in mM): CsOH, 127; D-gluconic acid, 127; CsCl, 4; HEPES, 10; NaCl, 8; EGTA, 0.4; pH was adjusted to 7.25 with CsOH, and then back-filled with the same solution containing […] amphotericin B (Sigma, St. Louis, Mo.). Extracellular solution contained (in mM): NaCl, 145; KCl, 3; glucose, 15; HEPES, 10; MgCl2, 0.8-1.2; CaCl2, 1.2; 0.005 glycine (Sigma), 0.05 picrotoxin (Sigma); pH adjusted to 7.4 with NaOH. MgCl2 concentration was matched to its concentration in culture medium. In experiments where effects of drugs on neuronal activity were quantified (FIG. 4D), recordings were done in culture medium (with HEPES replacing bicarbonate/CO2 to maintain pH). All experiments were performed at room temperature. For assaying synaptic connectivity, each neuron was stimulated by 1 ms step depolarization from −70 to +30 mV in voltage-clamp mode. Only neurons with monosynaptic connections were used. […] Recordings with access resistance>20 MΩ or that varied substantially were rejected from analysis.
We hypothesized that one target may be the number and properties of NMDA receptors at individual synapses.

[2] = system: excitatory and inhibitory terminals
[3] = system: cultured hippocampal neurons; test: field EPSC (fEPSC) recording before and after TBS; format: cell-based, rat
Experimental: as §1
To confirm that such a prominent TBS-induced increase in Pr does contribute to the enhancement of total synaptic strength, the magnitude of potentiation was tested electrophysiologically by sampling field EPSCs (fEPSCs) before and after TBS. The whole cell recording was obtained under perforated patch configuration to avoid wash-out of the intracellular components critical for synaptic plasticity. The membrane potential was clamped at −70 mV and EPSCs were evoked by field stimulation at a sampling frequency of 0.03 Hz. [Mg^2+]o during sampling was 4 mM to reduce background neural activity. The intensity of field stimulation was adjusted to produce a half maximal fEPSC amplitude. After 30 minutes of sampling were employed to determine the baseline level of synaptic strength, the bath solution was changed to 1.2 mM [Mg^2+]o and the recording configuration to current-clamp mode to allow for membrane voltage fluctuations. TBS was delivered at the same amplitude and temporal profiles as for the FM experiments.

[4] = system: presynaptic terminals of cultured hippocampal neurons; test: TBS-induced presynaptic plasticity measured by FM 1-43 dye uptake in hippocampal cultures; format: cell-based, rat
[5] = rat, in vivo
Experimental: Determination of [Mg^++] in CSF. Total Mg^++ levels in CSF in control and Mg^++-treated rats were determined by a colorimetric method with xylidyl blue (Anilytics Incorporated, MD) (Thomas, L. (1998). Clinical Laboratory diagnostics. 1st ed. Francfurt: TH-Books Verlagsgesellschaft, 231-41.)
Behavior test: Novel object recognition. The subjects were 20 experimentally naive, female, Sprague-Dawley rats (Charles River), 1 year old at the beginning of the experiment. They were housed two per cage with continuous access to food and water under a 12:12 light-dark cycle, with light onset at 8:00 a.m. Rats in the Mg^++-treated group received drinking water containing 6 mg/kg/day MgCl2 for 4 months before experiments.
We noted that the extracellular concentration Mg^+ in the CSF of a normal human brain is about 1.2 mM, the same concentration at which we obtained the maximum synaptic plasticity in vitro (FIG. 8B). We tested whether increasing Mg^++ concentration might also lead to enhanced synaptic plasticity in rats in vivo. Since Mg^++ is an essential mineral, normally obtained only by ingestion, we added a low quantity of Mg^++ (˜6 mg/kg/day) to drinking water in attempt to raise CSF Mg^++ concentration. This amount was proportional to that recommended by the FDA as a daily food supplement for humans. Two groups of adult Sprague-Dawley rats (8 months) were used as experimental populations. […]

[6] = system: NMDA receptors at single spine; test: calcium imaging and NMDA currents at single spines; format: cell-based, rat
[7] = system: cultured hippocampal neurons; test: control recordings of membrane potential, synaptic inputs and firing; format: cell-based, rat
Experimental: as §1

[8] = system: postsynaptic locations of cultured hippocampal neurons; test: postsynaptic evoked current response to iontophoretic glutamate (AMPA-R insertion); format: cell-based, rat
Source text: These were generally as described in the preceding examples. Glutamatergic iontophoresis was perfomed as described [Murnick 2000].
Since we wished to correlate the above pre-synaptic findings to the plasticity of single or small clusters of postsynaptic locations, this ruled out traditional double-patch plasticity experiments in which heterogeneous populations of connections are studied. Such studies also usually confound pre-synaptic and postsynaptic effects. For this purpose, we developed a technique of high-temporal and spatial resolution glutamatergic iontophoresis that allows us to stimulate single or small clusters of postsynaptic locations (resolution ˜2 μm, 1 ms; [Murnick 2000]).
To determine whether a decrease in overall activity of a neural network leads to increased plasticity (i.e., an increase in synaptic strength in response to a pattern of stimulation) of postsynaptic locations, we assessed the effect of treatment with Mg^++ on the ability of postsynaptic locations to respond to glutamate. As described above, Mg^++ blocks the NMDA receptor channel at resting membrane potential, so Mg^++ treatment reduces the overall activity level of the neural network. As also described above, increases in postsynaptic intracellular Ca^++ stimulated by activation of NMDA receptors leads to recruitment of AMPA receptors and their insertion into the postsynaptic membrane. […]

[9] = rat, in vivo; remark: listed apart in the source

Sequence of NMDA receptors (NR2B-containing) (Q00960 27-1482, other chains not shown): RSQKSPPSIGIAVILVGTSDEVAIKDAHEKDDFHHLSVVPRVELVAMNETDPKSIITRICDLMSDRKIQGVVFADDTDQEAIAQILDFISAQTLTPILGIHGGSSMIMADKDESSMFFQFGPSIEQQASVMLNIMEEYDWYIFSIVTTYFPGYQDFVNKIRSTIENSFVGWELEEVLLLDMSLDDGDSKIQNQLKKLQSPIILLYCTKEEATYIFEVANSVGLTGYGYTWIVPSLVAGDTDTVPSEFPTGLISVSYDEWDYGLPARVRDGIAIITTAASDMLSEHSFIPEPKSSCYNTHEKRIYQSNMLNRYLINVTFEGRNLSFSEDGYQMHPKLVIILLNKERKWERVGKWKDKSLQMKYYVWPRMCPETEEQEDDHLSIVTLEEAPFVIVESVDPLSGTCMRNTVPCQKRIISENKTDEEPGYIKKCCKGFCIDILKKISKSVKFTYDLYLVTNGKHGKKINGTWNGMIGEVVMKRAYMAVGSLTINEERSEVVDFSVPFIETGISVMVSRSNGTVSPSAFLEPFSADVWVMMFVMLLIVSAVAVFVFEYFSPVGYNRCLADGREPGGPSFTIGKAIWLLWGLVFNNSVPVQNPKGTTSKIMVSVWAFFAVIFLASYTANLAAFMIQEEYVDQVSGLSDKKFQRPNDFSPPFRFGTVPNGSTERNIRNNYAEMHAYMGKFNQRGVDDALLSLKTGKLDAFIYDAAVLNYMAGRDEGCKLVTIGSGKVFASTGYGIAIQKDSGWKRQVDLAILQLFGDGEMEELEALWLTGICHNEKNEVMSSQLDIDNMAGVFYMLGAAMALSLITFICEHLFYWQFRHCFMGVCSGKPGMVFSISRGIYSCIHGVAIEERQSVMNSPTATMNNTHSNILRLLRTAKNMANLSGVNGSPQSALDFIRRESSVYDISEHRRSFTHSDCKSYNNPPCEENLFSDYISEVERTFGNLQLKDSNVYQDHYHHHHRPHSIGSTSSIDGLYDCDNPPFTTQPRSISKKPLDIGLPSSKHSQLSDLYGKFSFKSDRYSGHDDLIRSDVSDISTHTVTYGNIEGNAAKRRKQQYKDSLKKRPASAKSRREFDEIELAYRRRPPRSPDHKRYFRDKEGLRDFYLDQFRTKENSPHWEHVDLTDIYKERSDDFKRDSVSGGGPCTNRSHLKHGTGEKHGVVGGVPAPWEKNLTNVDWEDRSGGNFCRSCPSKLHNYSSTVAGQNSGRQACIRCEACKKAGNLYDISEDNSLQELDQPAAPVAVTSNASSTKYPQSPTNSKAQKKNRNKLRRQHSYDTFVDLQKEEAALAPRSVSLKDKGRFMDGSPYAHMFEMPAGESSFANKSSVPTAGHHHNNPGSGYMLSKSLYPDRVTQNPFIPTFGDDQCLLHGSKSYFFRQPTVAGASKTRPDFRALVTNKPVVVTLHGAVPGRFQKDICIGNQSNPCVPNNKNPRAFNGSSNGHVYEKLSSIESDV

**Q.** With [Mg+2] [Mg^++] as the compound, how does the “N/A ratio (GNMDA/GAMPA)” value [1] read?
**A.** increased significantly

**Q.** And the “change in EPSCNMDA decay” value [1]?
**A.** 2 fold

**Q.** And the “ifenprodil-sensitivity of EPSCNMDA in treated versus control cultures” value [1]?
**A.** much higher than in the controls

**Q.** And the “increase of quantal charge transfer through NMDARs (QNMDA)” value [1]?
**A.** 2.4 fold

**Q.** And the “increase of synaptic density” value [2]?
**A.** ~30%

**Q.** What about the “neuronal density and morphology” value [2] of the same compound?
**A.** normal neuronal density and morphology

**Q.** And the “TBS-induced increase in fEPSC amplitude” value [3]?
**A.** 2.7 fold

**Q.** And the “duration of fEPSC increase” value [3]?
**A.** at least 1.5 hours

**Q.** What about the fEPSC2/fEPSC1 [3] of the same compound?
**A.** 2.7±0.6

**Q.** And the “increase of synaptic strength after TBS induction, average” value [3]?
**A.** 2.7 fold

**Q.** What about the “time to maximum of fEPSC increase after TBS” value [3] of the same compound?
**A.** ~10 min

**Q.** And the F2/F1 [4]?
**A.** 2.3±0.1

**Q.** And the N2/N1 [4]?
**A.** 2.1±0.1

**Q.** And the “Pr increase after TBS” value [4]?
**A.** 2.3 fold

**Q.** And the “enhancement of synaptic plasticity” value [4]?
**A.** ~2 fold

**Q.** What about the “increase in number of detectable FM puncta after TBS” value [4] of the same compound?
**A.** 2.1 fold

**Q.** What about the “increase in total presynaptic strength after TBS” value [4] of the same compound?
**A.** 5.5 fold

**Q.** What about the “increase in total presynaptic strength after induction” value [4] of the same compound?
**A.** 3.9 fold

**Q.** What about the “increase of plasticity of presynaptic terminals (S2/S1)” value [4] of the same compound?
**A.** 2.4 fold

**Q.** What about the “increase of synaptic strength at optimum concentration” value [4] of the same compound?
**A.** up to approximately five-fold

**Q.** What about the “optimal concentration for plasticity (maximal potentiability)” value [4] of the same compound?
**A.** 1.2 mM

**Q.** And the “plasticity of presynaptic terminals after partial block of Ca flux” value [4]?
**A.** significant increases of plasticity

**Q.** And the “plasticity under long term treatments” value [4]?
**A.** retain high plasticity persistently

**Q.** And the “time for which potentiation was stable” value [4]?
**A.** at least 1.5 hours

**Q.** What about the “increase in CSF [Mg]” value [5] of the same compound?
**A.** approximately 0.13 mM

**Q.** And the “reduction of Ca^2+ influx (ΔF/F)” value [6]?
**A.** 57±5% and 54±7%

**Q.** And the “reduction of NMDA currents (EPSCNMDA amplitude)” value [6]?
**A.** 54±7% and 57±5%

**Q.** And the “EPSC1.2/EPSC0.8, overall synaptic inputs during network activity” value [7]?
**A.** 1.03±0.1

**Q.** And the “EPSP1.2/EPSP0.8, spontaneous miniature EPSPAMPAs” value [7]?
**A.** 0.9±0.1

**Q.** And the “change in average firing rates of neurons within cultured neural networks” value [7]?
**A.** none of these treatments induces a significant change

**Q.** What about the “postsynaptic evoked current response to glutamate (AMPA-R insertion)” value [8] of the same compound?
**A.** showed significant levels of AMPA-R insertion; also recorded: increased current amplitude over time

**Q.** What about the “general status of the rats (body weight, mobility)” value [9] of the same compound?
**A.** did not observe any significant change in the general status
